Reference: ChEMBL document CHEMBL4421728, “Bach1 Inhibitors in Combination with Nrf2 Activators and Pharmaceutical Compositions Thereof” (2017)

Assays:
[1] = molecular target: T1, Transcription regulator protein BACH1 (Homo sapiens) (UniProt O14867); assay: Inhibition of Bach1 in normal human lung fibroblasts assessed as induction of HMOX protein expression at 0.078 uM incubated for 16 to 18 hrs in presence of 0.039 uM Nrf2 activator Bardoxolone methyl by immunostaining relative to control
T1 sequence (whole entry): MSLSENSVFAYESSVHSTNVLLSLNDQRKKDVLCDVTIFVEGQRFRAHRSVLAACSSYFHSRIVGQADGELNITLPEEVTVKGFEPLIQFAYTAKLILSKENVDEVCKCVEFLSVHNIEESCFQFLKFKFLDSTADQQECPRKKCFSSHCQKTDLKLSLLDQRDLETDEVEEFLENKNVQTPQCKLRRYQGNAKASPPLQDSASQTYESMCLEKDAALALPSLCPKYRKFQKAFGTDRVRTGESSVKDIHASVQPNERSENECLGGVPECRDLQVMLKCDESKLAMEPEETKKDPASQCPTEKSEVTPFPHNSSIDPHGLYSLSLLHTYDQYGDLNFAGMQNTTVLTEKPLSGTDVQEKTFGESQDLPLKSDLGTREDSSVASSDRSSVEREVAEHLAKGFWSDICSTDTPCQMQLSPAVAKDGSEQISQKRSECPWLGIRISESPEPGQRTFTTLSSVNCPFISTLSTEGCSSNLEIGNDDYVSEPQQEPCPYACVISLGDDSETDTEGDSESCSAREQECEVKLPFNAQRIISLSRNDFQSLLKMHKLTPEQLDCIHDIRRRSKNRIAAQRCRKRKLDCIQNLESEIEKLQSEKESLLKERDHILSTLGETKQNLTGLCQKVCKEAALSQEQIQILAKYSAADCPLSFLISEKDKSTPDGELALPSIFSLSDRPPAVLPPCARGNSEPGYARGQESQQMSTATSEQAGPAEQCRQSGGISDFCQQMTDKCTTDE

[2] = molecular target: T1, Transcription regulator protein BACH1 (Homo sapiens); assay: Inhibition of Bach1 in normal human lung fibroblasts assessed as induction of HMOX protein expression at 0.156 uM incubated for 16 to 18 hrs in presence of 0.039 uM Nrf2 activator Bardoxolone methyl by immunostaining relative to control
[3] = molecular target: T1, Transcription regulator protein BACH1 (Homo sapiens); assay: Inhibition of Bach1 in normal human lung fibroblasts assessed as induction of HMOX protein expression at 0.625 uM incubated for 16 to 18 hrs in presence of 0.0024 uM Nrf2 activator Bardoxolone methyl by immunostaining relative to control
[4] = molecular target: T1, Transcription regulator protein BACH1 (Homo sapiens); assay: Inhibition of Bach1 in normal human lung fibroblasts assessed as induction of HMOX protein expression at 2.5 uM incubated for 16 to 18 hrs by immunostaining relative to control
[5] = molecular target: T1, Transcription regulator protein BACH1 (Homo sapiens); assay: Inhibition of Bach1 in normal human lung fibroblasts assessed as induction of HMOX protein expression at 0.156 uM incubated for 16 to 18 hrs in presence of 0.156 uM Nrf2 activator Bardoxolone methyl by immunostaining relative to control
[6] = molecular target: T1, Transcription regulator protein BACH1 (Homo sapiens); assay: Inhibition of Bach1 in normal human lung fibroblasts assessed as induction of HMOX protein expression at 2.5 uM incubated for 16 to 18 hrs in presence of 0.0048 uM Nrf2 activator Bardoxolone methyl by immunostaining relative to control
[7] = molecular target: T1, Transcription regulator protein BACH1 (Homo sapiens); assay: Inhibition of Bach1 in normal human lung fibroblasts assessed as induction of HMOX protein expression at 0.019 uM incubated for 16 to 18 hrs in presence of 0.312 uM Nrf2 activator Bardoxolone methyl by immunostaining relative to control
[8] = molecular target: T1, Transcription regulator protein BACH1 (Homo sapiens); assay: Inhibition of Bach1 in normal human lung fibroblasts assessed as induction of HMOX protein expression at 0.625 uM incubated for 16 to 18 hrs in presence of 0.0097 uM Nrf2 activator Bardoxolone methyl by immunostaining relative to control
[9] = molecular target: T1, Transcription regulator protein BACH1 (Homo sapiens); assay: Inhibition of Bach1 in normal human lung fibroblasts assessed as induction of HMOX protein expression at 0.312 uM incubated for 16 to 18 hrs in presence of 0.0097 uM Nrf2 activator Bardoxolone methyl by immunostaining relative to control
[10] = molecular target: T1, Transcription regulator protein BACH1 (Homo sapiens); assay: Inhibition of Bach1 in normal human lung fibroblasts assessed as induction of HMOX protein expression at 0.625 uM incubated for 16 to 18 hrs in presence of 0.039 uM Nrf2 activator Bardoxolone methyl by immunostaining relative to control
[11] = molecular target: T1, Transcription regulator protein BACH1 (Homo sapiens); assay: Inhibition of Bach1 in normal human lung fibroblasts assessed as induction of HMOX protein expression at 0.019 uM incubated for 16 to 18 hrs in presence of 0.078 uM Nrf2 activator Bardoxolone methyl by immunostaining relative to control
[12] = molecular target: T1, Transcription regulator protein BACH1 (Homo sapiens); assay: Inhibition of Bach1 in normal human lung fibroblasts assessed as induction of HMOX protein expression at 0.156 uM incubated for 16 to 18 hrs in presence of 0.312 uM Nrf2 activator Bardoxolone methyl by immunostaining relative to control

- fold change (FC) [1]: 17.8
- fold change (FC) [2]: 17.6
- fold change (FC) [3]: 15.7
- fold change (FC) [4]: 17.5
- fold change (FC) [5]: 18.3
- fold change (FC) [6]: 19.5
- fold change (FC) [7]: 17.2
- fold change (FC) [8]: 17.2
- fold change (FC) [9]: 16.4
- fold change (FC) [10]: 17.2
- fold change (FC) [11]: 22.3
- fold change (FC) [12]: 16
Compound: CNC(=O)c1ccc2c(c1)nc(Nc1nc3ccc(OC(F)(F)F)cc3s1)n2C
